Laboratory results reported in US8173593B2, “Methods and compositions for emergency contraception using endothelin receptor antagonists” (The Population Council, Inc., priority 2005, dated 2012).

What was measured:
endothelin-2 = assay: inhibition of endothelin-2 function
superovulated mice [1] = assay: histological sections of ovaries collected 18 hours after hCG injection; type: in vivo
Procedure: (§1) BQ788 was further tested to examine the manner in which this ETB antagonist reduced the number of oocytes. Histological sections of ovaries collected at 18 hours after hCG injection in superovulated mice that received either vehicle or BQ788 through i/p at 8 hours after hCG, were examined and found to have striking differences in the number of corpus lutea (photo not shown).

superovulated mice [2] = assay: oocyte count after antagonist injection during superovulation; type: in vivo; details: for decrease in number of oocytes: time effect
Procedure: Pharmacological blockers of the endothelin receptor system were implemented to elucidate the role of ET-2 during superovulation. JKC301 (ETRA antagonist) and BQ788 (ETB antagonist) were injected 6 hours after hCG injection and an oocyte count was tabulated. […] BQ788 treatment was further investigated and found to have a time effect. BQ788 posted a 39%, 58%, and 66% decrease in number of oocytes at 4, 6 and 8 hours, respectively, after hCG injection.
as §1

With CCCC[C@@H](NC(=O)[C@@H](Cc1cn(C(=O)OC)c2ccccc12)NC(=O)[C@H](CC(C)(C)C)NC(=O)N1[C@H](C)CCC[C@@H]1C)C(=O)O [BQ788, N-cis-2,6-dimethylpiperidinocarbonyl-L-gamma-methylleucyl-D-1-methoxycarbonyltryptophanyl-D-norleucine] the “function of endothelin-2” value (endothelin-2) was “inhibits function of endothelin-2”, the inhibition of ovulation (superovulated mice [1]; given at 8 hours, a stage very close to the ovulation) was “inhibition of ovulation by blocking follicle rupture in the ovary” and the “number of corpus lutea and unruptured follicles in ovary sections” value (superovulated mice [1]; i/p at 8 hours after hCG, ovaries collected at 18 hours after hCG, versus vehicle) was “few corpus lutea and numerous unruptured follicles”. For the same compound, the “decrease in the number of oocytes” value (superovulated mice [2]; antagonist injected 6 hours after hCG injection, comparison of JKC301 and BQ788) was 65%, the “decrease in number of oocytes” value (superovulated mice [2]; BQ788 given 4 hours after hCG injection) was 39% and the “decrease in number of oocytes” value (superovulated mice [2]; BQ788 given 6 hours after hCG injection) was 58%. For the same compound, the “decrease in number of oocytes” value (superovulated mice [2]; BQ788 given 8 hours after hCG injection) was 66%.
